Measurements: patent US20230201221A1, “USE OF TERPENOIDS IN THE TREATMENT OR PREVENTION OF FIBROTIC DISEASES” (ARJIL BIOTECH HOLDING COMPANY LIMITED, priority 2020, published 2023)

Legend:
Format in all cases: in vivo
[1] = system: TNF-α, IL-1β, IL-6 and TGF-β; assay: Bleomycin-induced pulmonary fibrosis in mice: pro-inflammatory cytokines by ELISA; settings: extract 1.0 g/kg; BH, DH 50 mg/kg; after BLM challenge; p<0.001
Protocol: Mice were divided into fifth groups with 5 animals per group according to body weight: control group, BLM group, BLM+DEX group (7.5 mg/kg), BLM+ACH dosage group (50 mg/kg), and BLM+ACM dosage group (25 mg/kg), BLM+ACH dosage group (50 mg/kg), and BLM+ACM dosage group (25 mg/kg) BLM+AH dosage group (50 mg/kg), and BLM+AM dosage group (25 mg/kg) BLM+BH dosage group (50 mg/kg), and BLM+BM dosage group (25 mg/kg) BLM+CH dosage group (50 mg/kg), and BLM+CM dosage group (25 mg/kg) BLM+DH dosage group (50 mg/kg), and BLM+DM dosage group (25 mg/kg) BLM+EH dosage group (50 mg/kg), and BLM+EM dosage group (25 mg/kg) BLM. Pulmonary fibrosis (PF) was established in mice via a single intratracheal administration of BLM at 7.5 mg/kg mg/kg body weight. Different doses of samples were intragastrically administered daily for 21 days after BLM injury, and DEX was used as the positive control. Control and model groups received an equal volume of vehicle (0.9% NaCl) using the same schedule and route of administration. […]
The serum concentration of the pro-inflammatory cytokines (i.e. tumor necrosis factor-α (TNF-α), interleukin-6 (IL-6), and IL-1β) in serum were assessed with relevant enzyme-linked immunosorbent assay (ELISA) kits (Biosource International Inc., Sunnyvale, Calif., USA), based on the manufacturer's instructions.

ICR mice = assay: Bleomycin-induced pulmonary fibrosis in mice: lung hydroxyproline content; settings: extract 1.0 g/kg; AH, BH, DH 50 mg/kg; p<0.001
Protocol: Mice were divided into fifth groups with 5 animals per group according to body weight: control group, BLM group, BLM+DEX group (7.5 mg/kg), BLM+ACH dosage group (50 mg/kg), and BLM+ACM dosage group (25 mg/kg), BLM+ACH dosage group (50 mg/kg), and BLM+ACM dosage group (25 mg/kg) BLM+AH dosage group (50 mg/kg), and BLM+AM dosage group (25 mg/kg) BLM+BH dosage group (50 mg/kg), and BLM+BM dosage group (25 mg/kg) BLM+CH dosage group (50 mg/kg), and BLM+CM dosage group (25 mg/kg) BLM+DH dosage group (50 mg/kg), and BLM+DM dosage group (25 mg/kg) BLM+EH dosage group (50 mg/kg), and BLM+EM dosage group (25 mg/kg) BLM. Pulmonary fibrosis (PF) was established in mice via a single intratracheal administration of BLM at 7.5 mg/kg mg/kg body weight. Different doses of samples were intragastrically administered daily for 21 days after BLM injury, and DEX was used as the positive control. Control and model groups received an equal volume of vehicle (0.9% NaCl) using the same schedule and route of administration.
The contents of hydroxyproline were analyzed in lung tissue following the instruction of hydroxyproline assay kit (Biosource International Inc., Sunnyvale, Calif., USA). The pulmonary tissues of mice were ground and homogenized with 1 ml of 6 mol/L […] solution, hydrolyzed at 95° C. for 5 hours, and the pH value was adjusted to 6.0-6.8. According to the instructions, the corresponding reagents were added to the reaction system and mixed thoroughly and then incubated for 15 minutes at 60° C. After cooling, the supernatants were collected after centrifuging at 3500 rpm for 10 minutes. The absorbance value of the supernatant from the samples was measured at 550 nm by a spectrophotometer and calculated for the contents of hydroxyproline on each group.

[2] = system: TNF-α, IL-1β, IL-6 and TGF-β; assay: Cisplatin-induced renal injury in mice: serum pro-inflammatory cytokines by ELISA; settings: extract at 1000 mg/kg; after cisplatin challenge
Protocol: TNF-α, IL-6, and IL-1β cytokines in serum The serum concentration of the pro-inflammatory cytokines (i.e. tumor necrosis factor-α (TNF-α), interleukin-6 (IL-6), and IL-1β) in serum are assessed with relevant enzyme-linked immunosorbent assay (ELISA) kits (Biosource International Inc., Sunnyvale, Calif., USA), based on the manufacturer's instructions.
Seven-to-eight-week-old male C57BL/6 mice are obtained from the BioLASCO Taiwan Co., Ltd. (Taipei, Taiwan). The animals are housed in Plexiglas cages at a constant temperature of 22±1° C. and a relative humidity of 55±5% on a 12 h dark-light cycle for at least 2 weeks before the experiment. Animals are provided food and water ad libitum. All experimental procedures are performed according to the guidelines of the Institutional Animal Ethics Committee, and the protocol is approved by the Committee for the Purpose of Control and Supervision of Experiments on Animals.
Renal fibrosis is induced via multiple injections of low-dose cisplatin. Intraperitoneal injections of cisplatin (5 mg/kg/injection; P4394, Sigma-Aldrich, St Louis, Mo.) are performed at 0, 1, and 3 weeks, for a total of 3 injections. Mice are sacrificed at 6 weeks after the first dose of cisplatin (n=6). […]

BALB/c mice = assay: Con A (concanavalin A) induced acute hepatitis in BALB/c mice; settings: mean ± SEM
Protocol: Male BALB/c mice (7-9 weeks old) were purchased from BioLASCO Taiwan Co., Ltd or National Laboratory Animal Center (NLAC, Taiwan). Animals are housed five per cage with food and water provided ad libitum throughout the experiments. Room temperature is maintained at 23±2° C. with an alternating 12 h light dark cycle. Animals are acclimatized for one week to minimize the effect of stress before the experiments. All experimental protocols involving animals and their care are approved by the Institutional Animal Care and Use Committee (IACUC) in ITRI (ITRI-IACUC-2018-041 and ITRI-IACUC-2018-050; accredited by AAALAC) and are carried out according to the regulations of the Council of Agriculture, Taiwan.
Con A is dissolved in pyrogen free saline at a concentration of 3 mg/mL and intravenously injected at a dose of 15 mg/kg or 20 mg/kg of body weight to induce hepatitis. […] Blood and liver tissues are collected 24 h after Con A treatment (FIG. 11). Serum are stored at […] until analysis.
To assess the level of hepatocellular injury after Con A treatment, serum GPT and GOT levels are measured by Fuji Dri-Chem slides (Fuji, Japan). The serum of the same group is pooled for cytokine assay. Cytokine levels are measured by ProcartaPlex™ immunoassays kit according to manufacturer's instructions. Data are presented as mean f SEM. T test is used to analyze the differences between drug and vehicle treated groups. The difference is regarded statistically significant when p value is less than 0.05.
Liver tissues are fixed in 10% phosphate buffered formaldehyde, embedded in paraffin, and stained with hematoxylin and eosin (H&E) in order to confirm tissue lesions. Tissue lesions are examined microscopically by a veterinary pathologist at BioLASCO Taiwan Co., Ltd. The criteria of severity grading system for all microscopic lesions are graded from 0 to 4 as follows: 0=none; 1=individual cell necrosis; 2=≤30% lobular necrosis; 3=≤60% lobular necrosis; 4=>60% lobular necrosis.

C=C1C(=O)O[C@H]2/C=C(\C)CC3C=C(CC/C=C(\C)CC[C@H]12)C(=O)O3 (stereo partly drawn) [AR100-DS1, Ovatodiolide]
TNF-α, IL-1β, IL-6 and TGF-β production [1]: improved TNF-α, IL-1β, IL-6 and TGF-β production | hydroxyproline (HP) content in lung tissue (ICR mice): reduced lung HP | NO, TNF-α, IL-1β, and IL-6 production in serum [2]: improved NO, TNF-α, IL-1β, and IL-6 production | serum GPT level (BALB/c mice; 50 mg/kg oral, 24 h after 15 mg/kg Con A, vehicle 368±107, p<0.05): 109±25 U/L | serum GOT level (BALB/c mice; 50 mg/kg oral, 24 h after 15 mg/kg Con A, vehicle 410±56): 261±45 U/L | liver necrosis histopathological score (BALB/c mice; graded 0 to 4, 24 h after Con A, vehicle 1.4±0.2): 0.2±0.2
